Test results from US8217014B2, “Pharmaceutical composition for treatment of blood clotting disorder” (National University Corporation Nagoya University, priority 2006, dated 2012).
Several values for one entry are separate records, joined by “and”; a condition that tells them apart may be missing. Equal values may be shown once.

Assays:
[1] = system: HCV-positive patients with hemophilia; assay: Bleeding requiring treatment and use of clotting factors in hemophilia patients (patient logs); format: in vivo, human; details: 47 hemophilia patients with hepatitis C
[2] = system: HCV; assay: Eradication of HCV in HCV-positive patients with hemophilia; format: in vivo, human
Protocol: (§1) Ribavirin was orally administered, while the interferon was intravenously administered.
(§2) Interferon α-2b alone was administered to the patients Nos. 1, 2, 3, and 5, prior to the combined administration of this Example 1. In the interferon single dosing period, the interferon was administered to the patients Nos. 1, 2, 3, and 5 every day with the dosage of 6 MU (million units) per day for the first 2 weeks and 3 times per week for the subsequent 22 weeks. […] In the combined administration of this Example 1, Intron A was administered to all the patients every day with the dosage of 6 MU per day for the first 2 weeks and 3 times per week for the subsequent 22 weeks.
The HCV-RNA level was measured at the start of treatment with Amplicor HCV Assay, version 2.0 (Roche Diagnostic Systems).
Eradication of HCV was considered positive when the absence of serum HCVRNA was maintained for 24 weeks after the treatment was completed.

[3] = system: coagulation factor X mRNA; assay: mRNA expression of coagulation factor X, real-time quantitative RT-PCR, hepatic cell lines; format: cell-based; details: ribavirin 150 μg/ml in the presence of interferon α-2b 0.75 μg/ml; data not shown
Protocol: (§3) The mRNA expression levels of the coagulation factors VII and X and prothrombin were measured according to the protocols of real-time quantitative RT-PCR with ABI Prism 7700 Sequence Detection (Perkin Elmer Biosystems, Foster City, Calif., USA) and SYBR Green PCR kit (Perkin Elmer Biosystems). The real-time quantitative RT-PCR was repeated twice. The following […] were used for determination of the mRNA of the genes.

[4] = system: HCV-positive patients with hemophilia; assay: Bleeding requiring treatment and use of clotting factors in hemophilia patients (patient logs); format: in vivo, human
Protocol: as §1, §2
The use of clotting factors was assessed by patient logs. The clotting factors are generally not used for patients with mild hemophilia. The doses (mean value) of the clotting factors before the combined dosing period of this Example 1, during the combined dosing period, and after the combined dosing period were evaluated. A significant difference at P<0.05 was evaluated by (paired) t-test. Ability to perform activities of daily living was assessed by interview.

[5] = system: prothrombin time (PT) in the plasma; assay: Prothrombin time (PT) in the plasma of chronic hepatitis C patients with or without hemophilia; format: in vivo, human; details: for PT Increase Rate: 12 weeks after start versus before; for PT After Therapy: 12 weeks after start
Protocol: Of these patients, 9 patients were with hemophilia and 27 hepatitis patients were without hemophilia. Pegintron was administered to all the patients once a week with the dosage of 1.5 μg/Kg for 48 weeks, whereas Rebetol was simultaneously administered to the 9 hemophilia patients with the dosage of Administration Example 1 (600 mg to 800 mg per day).
The prothrombin time (PT) in the plasma was measured for the patients before the start of the dosing and 12 weeks after the start of the dosing, for the purpose of evaluation of the coagulation activity.

[6] = system: coagulation factor VII mRNA in HepG2 cell line; assay: mRNA expression of coagulation factor VII, real-time quantitative RT-PCR, HepG2 cell line; format: cell-based, human; details: ribavirin 150 μg/ml in the presence of interferon α-2b 0.75 μg/ml, 48 hours, p<0.02
Protocol: as §3

[7] = system: prothrombin mRNA; assay: mRNA expression of prothrombin, real-time quantitative RT-PCR, hepatic cell lines; format: cell-based; details: ribavirin 150 μg/ml in the presence of interferon α-2b 0.75 μg/ml; data not shown
Protocol: as §3

[8] = system: coagulation factor VII mRNA in hepatic parenchymal cell line; assay: mRNA expression of coagulation factor VII, real-time quantitative RT-PCR, normal hepatic parenchymal cell line; format: cell-based; details: ribavirin 150 μg/ml in the presence of interferon α-2b 0.75 μg/ml, 48 hours, p<0.01
Protocol: as §3

[9] = system: coagulation factor VII; assay: Coagulation activity of coagulation factor VII in the plasma of hemophilia patients
[10] = system: coagulation factor X; assay: Coagulation activity of coagulation factor X in the plasma; format: in vivo, human; details: before and after the start of the combined dosing, data not shown
[11] = 4 weeks after start of combined dosing, 9 patients

Compound: interferon α-2b
- reduction of the bleeding tendency by single interferon dosing [1]: No such reduction
- Elimination of HCV in interferon single dosing period ([2]; interferon α-2b alone, 6 MU per day for 2 weeks then 3 times per week for 22 weeks, patients Nos. 1, 2, 3, 5): not eliminated

Compound: NC(=O)c1ncn([C@@H]2O[C@H](CO)[C@@H](O)[C@H]2O)n1 [ribavirin, 1-β-D-ribofuranosyl-1,2,4-triazole-3-carboxamide]
- mRNA induction of the coagulation factor X [3]: No significant induction
- monthly mean dosage of the clotting factors in the combined dosing period ([4]; 5 patients with moderate or severe hemophilia, ribavirin + interferon α-2b, standard deviation 1488, 3783 U (SD 2646) in the 6 months before, P<0.03): 1605 U
- monthly mean dosage of the clotting factors in the 6-month period after the combined dosing period ([4]; 5 patients with moderate or severe hemophilia, standard deviation 1528, 3783 U (SD 2646) in the 6 months before, P<0.06): 1667 U
- Times of Bleeding Requiring Treatment, After Therapy ([4]; monthly mean bleeding frequency treated with clotting factors, after the combined dosing period of ribavirin and interferon α-2b, patient (Nos. 1, 2, 3, 5, 8)): 0.7 and 0.0 and 1.6 and 4.1 and 2.2
- Times of Bleeding Requiring Treatment, During Therapy ([4]; monthly mean bleeding frequency treated with clotting factors, combined dosing period of ribavirin and interferon α-2b, patient (Nos. 1, 2, 3, 5, 8)): 0.2 and 0.8 and 0.7 and 3.0 and 2.6
- bleeding tendency in the combined dosing period compared with the interferon single dosing period ([4]; patients Nos. 1, 2, 3 and 5, ribavirin + interferon α-2b): significantly reduced
- Eradication of HCV ([2]; oral ribavirin 600-800 mg/day combined with interferon α-2b (Intron A) for 24 weeks, YES = absence of serum HCV-RNA maintained 24 weeks after treatment, per patient (Nos. 1-8)): YES
- PT Increase Rate ([5]; Hemophilia Group n = 9): 9.4 ± 8.4%
- PT After Therapy ([5]; Hemophilia Group n = 9, Rebetol 600-800 mg/day + Pegintron 1.5 μg/Kg once a week, before therapy 90.0 ± 12.2%): 99.4 ± 14.3%
- PT Increase Rate ([5]; Non-Hemophilia Group n = 27): 5.4 ± 12.6%
- PT After Therapy ([5]; Non-Hemophilia Group n = 27, Pegintron 1.5 μg/Kg once a week, combined administration, before therapy 94.9 ± 14.4%): 100.0 ± 16.8%
- mRNA induction of the coagulation factor VII [6]: about 3 times
- mRNA induction of prothrombin [7]: No significant induction
- mRNA induction of the coagulation factor VII [8]: about 4 times
- Factor VII coagulation activity increase in the 2 patients without significant increase ([9]; 2 of the 9 patients (one HIV positive, one hepatitis C and hepatitis B virus positive)): 5% and 8%
- Factor VII coagulation activity increase, maximum [9, 11]: 28%
- Factor VII coagulation activity increase, minimum [9, 11]: 5%
- Factor VII Clotting Activity Increase Rate ([9]; 4 weeks after start versus before start of combined dosing, 9 hemophilia patients, p<0.04): 15.7 ± 8.8%
- Factor VII Clotting Activity After Start of Therapy ([9]; plasma, 4 weeks after start of combined dosing (ribavirin 600-800 mg/day + interferon α-2b), 9 hemophilia patients, before start 86.3 ± 7.6%): 102.0 ± 10.3%
- change in coagulation activity of the coagulation factor X [10]: No significant change
